Test results published in ChEMBL document CHEMBL1131519, “1,2-Benzisothiazol-3-one 1,1-dioxide inhibitors of human mast cell tryptase” (J Med Chem, 1998).

Legend:
Tryptase = Tryptase (Homo sapiens, UniProt Q9BZJ3+Q15661+Q9NRR2); test: Inhibitory activity was measured against human mast cell tryptase.; assay type: protein assay
Coagulation factor X = Coagulation factor X (Homo sapiens, UniProt P00742); test: Inhibitory activity was measured against Coagulation factor X
Neutrophil elastase = biological target: T1, Neutrophil elastase (Homo sapiens, UniProt P08246); test: Inhibitory activity was measured against human leukocyte elastase.
T1 sequence (P08246 whole entry): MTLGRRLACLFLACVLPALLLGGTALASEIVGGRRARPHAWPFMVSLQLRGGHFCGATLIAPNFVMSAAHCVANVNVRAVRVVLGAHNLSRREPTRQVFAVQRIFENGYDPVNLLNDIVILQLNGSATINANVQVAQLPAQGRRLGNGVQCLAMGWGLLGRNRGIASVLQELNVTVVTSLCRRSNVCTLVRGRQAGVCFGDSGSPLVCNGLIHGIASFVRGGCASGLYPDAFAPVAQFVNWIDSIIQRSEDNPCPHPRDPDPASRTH

Plasminogen = Plasminogen (Homo sapiens, UniProt P00747); test: Inhibitory activity was measured against plasmin.
[1] = biological target: Urokinase-type plasminogen activator (Homo sapiens, UniProt P00749); test: Inhibitory activity was measured against urokinase.
Prothrombin = Prothrombin (Homo sapiens, UniProt P00734); test: Inhibitory activity was measured against thrombin.

Sequence of Coagulation factor X (P00742 41-179 limits assumed): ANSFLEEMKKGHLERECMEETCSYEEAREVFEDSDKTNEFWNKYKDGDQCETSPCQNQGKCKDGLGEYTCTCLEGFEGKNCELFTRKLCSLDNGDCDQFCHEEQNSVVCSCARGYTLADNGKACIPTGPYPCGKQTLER
Sequence of Coagulation factor X (P00742 235-488 limits assumed): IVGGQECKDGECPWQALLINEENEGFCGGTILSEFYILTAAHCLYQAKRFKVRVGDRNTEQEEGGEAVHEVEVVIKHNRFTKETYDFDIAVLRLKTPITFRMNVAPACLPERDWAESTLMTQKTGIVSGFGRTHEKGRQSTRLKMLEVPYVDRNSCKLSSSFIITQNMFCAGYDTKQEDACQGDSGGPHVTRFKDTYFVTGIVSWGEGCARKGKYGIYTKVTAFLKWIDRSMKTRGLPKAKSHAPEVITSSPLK
Sequence of Plasminogen (P00747 97-580 limits assumed): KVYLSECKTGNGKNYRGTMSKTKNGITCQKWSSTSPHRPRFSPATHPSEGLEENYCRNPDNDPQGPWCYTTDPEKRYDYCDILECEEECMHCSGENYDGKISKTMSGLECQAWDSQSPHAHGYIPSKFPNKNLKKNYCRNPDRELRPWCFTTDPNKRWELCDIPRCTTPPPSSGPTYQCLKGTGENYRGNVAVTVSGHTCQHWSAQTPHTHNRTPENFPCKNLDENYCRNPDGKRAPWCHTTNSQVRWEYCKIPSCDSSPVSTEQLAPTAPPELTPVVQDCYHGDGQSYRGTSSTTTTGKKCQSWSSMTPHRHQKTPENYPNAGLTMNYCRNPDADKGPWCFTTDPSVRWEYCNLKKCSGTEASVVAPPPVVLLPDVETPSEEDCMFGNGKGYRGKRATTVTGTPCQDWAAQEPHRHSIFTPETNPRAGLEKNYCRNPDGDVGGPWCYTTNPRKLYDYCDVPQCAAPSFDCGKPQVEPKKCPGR
Sequence of Plasminogen (P00747 581-810 limits assumed): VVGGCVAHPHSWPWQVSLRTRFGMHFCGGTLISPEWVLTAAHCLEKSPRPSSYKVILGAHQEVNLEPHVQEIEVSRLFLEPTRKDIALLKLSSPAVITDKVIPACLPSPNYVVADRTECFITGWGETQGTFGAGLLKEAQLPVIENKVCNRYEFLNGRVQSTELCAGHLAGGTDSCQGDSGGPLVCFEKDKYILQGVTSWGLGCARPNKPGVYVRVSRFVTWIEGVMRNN

Row | SMILES | IC50 (Tryptase) | further results
1 | CC(C)(C)OC(=O)N[C@H](CCCCNC(=O)OCc1ccccc1)C(=O)OCN1C(=O)c2ccccc2S1(=O)=O | 12200 nM | 
2 | O=C(CCNC(=O)OCc1ccccc1)NCCC(=O)OCN1C(=O)c2ccccc2S1(=O)=O | > 33000 nM | 
3 | O=C(CCCNC(=O)OCc1ccccc1)OCN1C(=O)c2ccccc2S1(=O)=O | 349 nM | 
4 | O=C(CCc1ccccc1)Nc1ccc(C(=O)OCN2C(=O)c3ccccc3S2(=O)=O)cc1 | 170 nM | 
5 | O=C(CCNC(=O)OCc1ccccc1)OCN1C(=O)c2ccccc2S1(=O)=O | 854 nM | IC50 (Coagulation factor X): > 33000 nM; IC50 (Neutrophil elastase): 2260 nM; IC50 (Plasminogen): > 33000 nM; IC50 [1]: > 33000 nM; IC50 (Prothrombin): > 33000 nM
6 | O=C(Cc1ccccc1)NCc1ccc(C(=O)OCN2C(=O)c3ccccc3S2(=O)=O)cc1 | 132 nM | 
7 | Nc1ccc(C(=O)OCN2C(=O)c3ccccc3S2(=O)=O)cc1 | > 33000 nM | 
8 | O=C(NCc1ccc(C(=O)OCN2C(=O)c3ccccc3S2(=O)=O)cc1)OCc1ccccc1 | 352 nM | 
9 | O=C(NCc1ccc(C(=O)OCN2C(=O)c3ccccc3S2(=O)=O)cc1)Oc1ccccc1 | 630 nM | 
10 | CC(C)(C)OC(=O)N[C@@H](CCCCNC(=O)OCc1ccccc1)C(=O)OCN1C(=O)c2ccccc2S1(=O)=O | 352 nM | 
11 | O=C(NCc1ccc(C(=O)OCN2C(=O)c3ccccc3S2(=O)=O)cc1)Nc1ccccc1 | 157 nM | 
12 | O=C(Nc1cccc(C(=O)OCN2C(=O)c3ccccc3S2(=O)=O)c1)OCc1ccccc1 | > 33000 nM | 
13 | O=C(Nc1ccc(C(=O)OCN2C(=O)c3ccccc3S2(=O)=O)cc1)OCc1ccccc1 | 64.3 nM | IC50 (Neutrophil elastase): 2660 nM; IC50 (Prothrombin): > 33000 nM
14 | O=C(NCc1ccccc1)Nc1ccc(C(=O)OCN2C(=O)c3ccccc3S2(=O)=O)cc1 | 950 nM | 
15 | O=C(CCCCCNC(=O)OCc1ccccc1)OCN1C(=O)c2ccccc2S1(=O)=O | 436 nM | 
16 | CC(C)(C)OC(=O)NCCCCCC(=O)OCN1C(=O)c2ccccc2S1(=O)=O | 5370 nM | 
17 | O=C(NCCc1ccccc1)c1ccc(C(=O)OCN2C(=O)c3ccccc3S2(=O)=O)cc1 | 679 nM | 
18 | O=C(CNC(=O)OCc1ccccc1)OCN1C(=O)c2ccccc2S1(=O)=O | 6940 nM | 
19 | O=C(CCCCNC(=O)OCc1ccccc1)OCN1C(=O)c2ccccc2S1(=O)=O | 110 nM | IC50 (Coagulation factor X): > 33000 nM; IC50 (Neutrophil elastase): 1440 nM; IC50 (Plasminogen): 33000 nM; IC50 [1]: > 33000 nM; IC50 (Prothrombin): > 33000 nM
20 | O=C(OCN1C(=O)c2ccccc2S1(=O)=O)c1ccc(OCCOc2ccccc2)cc1 | > 33000 nM | 
